ChEMBL document CHEMBL5113526, “Design, Synthesis, and Biological Evaluation of Androgen Receptor Degrading and Antagonizing Bifunctional Steroidal Analogs for the Treatment of Advanced Prostate Cancer” (J Med Chem, 2022)

How the values were obtained:
[1] = tested on: LNCaP; test: cells; conditions: Homo sapiens
Description: Antiproliferative activity against human LNCAP cells assessed as reduction in cell viability measured after 6 days by CellTiter-Glo assay

[2] = tested on: LNCaP; test: Antiproliferative activity against human LNCAP cells assessed as reduction in cell viability at 10 uM measured after 6 days by CellTiterGlo assay relative to control; assay type: functional; conditions: Homo sapiens, LNCaP, time 6 day
[3] = biological target: T1, Androgen receptor (Homo sapiens, UniProt P10275); test: Antagonist activity at DHT-induced Androgen receptor transcriptional activity in human HEK293 cells measured after 24 hrs by Steady-Glo reagent based assay; assay type: cell-based
T1 sequence (P10275 whole entry): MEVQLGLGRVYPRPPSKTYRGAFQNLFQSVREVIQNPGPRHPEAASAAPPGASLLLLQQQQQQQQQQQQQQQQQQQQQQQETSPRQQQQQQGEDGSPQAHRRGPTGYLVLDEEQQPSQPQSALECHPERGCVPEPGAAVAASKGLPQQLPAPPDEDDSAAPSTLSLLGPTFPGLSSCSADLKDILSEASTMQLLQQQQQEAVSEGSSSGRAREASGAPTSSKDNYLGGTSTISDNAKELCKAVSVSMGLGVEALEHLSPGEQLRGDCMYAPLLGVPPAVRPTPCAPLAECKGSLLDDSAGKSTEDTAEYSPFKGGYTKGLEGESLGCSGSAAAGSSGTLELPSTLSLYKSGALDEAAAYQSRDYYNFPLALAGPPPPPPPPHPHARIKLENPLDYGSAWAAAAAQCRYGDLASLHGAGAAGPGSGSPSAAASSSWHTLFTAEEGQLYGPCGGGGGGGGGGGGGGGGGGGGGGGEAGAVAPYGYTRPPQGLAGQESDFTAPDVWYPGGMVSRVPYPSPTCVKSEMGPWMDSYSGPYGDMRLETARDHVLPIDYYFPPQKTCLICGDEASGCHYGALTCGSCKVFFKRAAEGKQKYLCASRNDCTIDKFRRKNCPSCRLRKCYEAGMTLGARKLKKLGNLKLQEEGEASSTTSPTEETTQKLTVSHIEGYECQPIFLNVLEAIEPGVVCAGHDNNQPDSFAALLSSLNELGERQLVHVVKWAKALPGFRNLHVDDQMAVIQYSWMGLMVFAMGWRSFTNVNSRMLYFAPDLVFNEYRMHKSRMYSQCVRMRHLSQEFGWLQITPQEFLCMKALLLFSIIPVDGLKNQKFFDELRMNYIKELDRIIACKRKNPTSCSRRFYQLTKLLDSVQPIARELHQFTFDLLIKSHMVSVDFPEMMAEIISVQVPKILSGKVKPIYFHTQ

[4] = biological target: T1, Androgen receptor; test: Induction of AR degradation in human LNCap cells incubated for 24 hrs by sandwich ELISA analysis; assay type: cell-based
[5] = biological target: T2, Steroid 17-alpha-hydroxylase/17,20 lyase (Homo sapiens, UniProt P05093); test: Inhibition of human recombinant CYP17A1 incubated for 5 mins in presence of NADPH by LC-MS/MS analysis; assay type: ADME
T2 sequence (P05093 whole entry): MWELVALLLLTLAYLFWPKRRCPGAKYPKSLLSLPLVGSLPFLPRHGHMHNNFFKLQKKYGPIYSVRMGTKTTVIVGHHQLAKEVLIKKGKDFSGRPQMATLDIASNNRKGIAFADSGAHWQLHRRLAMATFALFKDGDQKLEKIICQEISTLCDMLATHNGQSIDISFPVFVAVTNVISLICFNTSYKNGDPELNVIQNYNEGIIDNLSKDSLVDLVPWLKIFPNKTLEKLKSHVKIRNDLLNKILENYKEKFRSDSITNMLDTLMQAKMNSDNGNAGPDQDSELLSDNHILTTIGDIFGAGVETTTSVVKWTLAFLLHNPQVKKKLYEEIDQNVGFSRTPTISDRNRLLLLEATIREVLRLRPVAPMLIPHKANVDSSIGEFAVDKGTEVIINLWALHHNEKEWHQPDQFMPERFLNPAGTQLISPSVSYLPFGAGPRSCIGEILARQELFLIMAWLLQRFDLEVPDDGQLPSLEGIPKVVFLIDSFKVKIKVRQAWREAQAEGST

| SMILES | IC50 [1] | IC50 [5] | inhibition at 10 µM [2] | IC50 [3] | DC50 [4] |
| --- | --- | --- | --- | --- | --- |
| C[C@]12CC[C@H](NS(=O)(=O)c3cccnc3)CC1=CC[C@@H]1[C@@H]2CC[C@]2(C)C(n3cnc4ccccc43)=CC[C@@H]12 | 1640 nM |  | 93.3% |  |  |
| COc1cncc(C2=CC[C@H]3[C@@H]4CC=C5C[C@@H](NC(=O)c6ccnnc6)CC[C@]5(C)[C@H]4CC[C@]23C)c1 | 646 nM |  | 73.7% | 914 nM | 38400 nM |
| C[C@]12CC[C@H](NC(=O)c3ccnnc3)CC1=CC[C@@H]1[C@@H]2CC[C@]2(C)C(n3cncn3)=CC[C@@H]12 | 238 nM | > 3000 nM | 64.4% |  |  |
| Cc1cn(C2=CC[C@H]3[C@@H]4CC=C5C[C@@H](NC(=O)c6cccnc6)CC[C@]5(C)[C@H]4CC[C@]23C)cn1 | 933 nM |  | 103% | 1280 nM | 3580 nM |
| Cc1cncc(C2=CC[C@H]3[C@@H]4CC=C5C[C@@H](NC(=O)c6ccnnc6)CC[C@]5(C)[C@H]4CC[C@]23C)c1 | 743 nM |  | 78.2% | 1640 nM | 11800 nM |
| C[C@]12CC[C@H](O)C[C@@H]1[C@H](CO)C[C@@H]1[C@@H]2CC[C@]2(C)C(c3cccnc3)=CC[C@@H]12 | 2830 nM |  | 88.5% |  |  |
| C[C@]12CC[C@H](O)C[C@@H]1[C@H](NS(=O)(=O)c1cccnc1)C[C@@H]1[C@@H]2CC[C@]2(C)C(c3cccnc3)=CC[C@@H]12 | 5430 nM |  | 100% |  |  |
| C[C@]12CC[C@H](NCc3ccncc3)CC1=CC[C@@H]1[C@@H]2CC[C@]2(C)C(n3cnc4ccccc43)=CC[C@@H]12 | 2380 nM |  | 111% |  |  |
| C[C@]12CC[C@H](NC(=O)c3ccnnc3)CC1=CC[C@@H]1[C@@H]2CC[C@]2(C)C(n3cnc4ccccc43)=CC[C@@H]12 | 765 nM |  | 95.9% | 1350 nM | 4780 nM |
| C[C@]12CC[C@H](O)C[C@@H]1[C@@H](OS(C)(=O)=O)C[C@@H]1[C@@H]2CC[C@]2(C)C(c3cccnc3)=CC[C@@H]12 | 1790 nM |  | 100% |  |  |
| Cc1noc(C)c1S(=O)(=O)N[C@H]1CC[C@@]2(C)C(=CC[C@@H]3[C@@H]2CC[C@]2(C)C(n4cnc5ccccc54)=CC[C@@H]32)C1 | 2260 nM |  | 100% |  |  |
| C[C@]12CC[C@H](O)C[C@@H]1[C@H](NS(C)(=O)=O)C[C@@H]1[C@@H]2CC[C@]2(C)C(c3cccnc3)=CC[C@@H]12 | > 10000 nM |  |  |  |  |
| C[C@]12CC[C@H](NC(=O)c3ccnnc3)CC1=CC[C@@H]1[C@@H]2CC[C@]2(C)C(c3cncnc3)=CC[C@@H]12 | 820 nM |  | 99.7% |  |  |
| C[C@]12CC[C@H](NC(=O)c3ccncc3)CC1=CC[C@@H]1[C@@H]2CC[C@]2(C)C(c3cncc(F)c3)=CC[C@@H]12 | 1010 nM |  | 104% |  |  |
| C[C@]12CC[C@H](NC(=O)c3ccnnc3)CC1=CC[C@@H]1[C@@H]2CC[C@]2(C)C(c3cncc(F)c3)=CC[C@@H]12 | 2210 nM |  | 100% |  |  |
| C[C@]12CC[C@H](NC(=O)c3ccnnc3)CC1=CC[C@@H]1[C@@H]2CC[C@]2(C)C(n3ccnc3)=CC[C@@H]12 | 382 nM |  | 92.4% | 981 nM | 2760 nM |
| C[C@]12CC[C@H](NC(=O)c3ccncc3)CC1=CC[C@@H]1[C@@H]2CC[C@]2(C)C(n3cnc4ccccc43)=CC[C@@H]12 | 763 nM |  | 104% | 1550 nM | 3760 nM |
| C[C@]12CC[C@H](O)CC1=CC[C@@H]1[C@@H]2CC[C@]2(C)C(c3cccnc3)=CC[C@@H]12 [ABIRATERONE] | 2710 nM | 2 nM | 84.7% |  |  |
| C[C@]12CC[C@H](NC(=O)c3ccnnc3)CC1=CC[C@@H]1[C@@H]2CC[C@]2(C)C(n3ccnn3)=CC[C@@H]12 | 672 nM | > 3000 nM |  | 9140 nM | 4360 nM |
| COc1cncc(C2=CC[C@H]3[C@@H]4CC=C5C[C@@H](NC(=O)c6cccnc6)CC[C@]5(C)[C@H]4CC[C@]23C)c1 | > 10000 nM |  |  |  |  |
| C[C@]12CC[C@H](O)C[C@@H]1[C@H](Oc1ccncn1)C[C@@H]1[C@@H]2CC[C@]2(C)C(c3cccnc3)=CC[C@@H]12 | 3160 nM |  | 91.3% |  |  |
| CO/N=C1\C[C@@H]2[C@H](CC[C@]3(C)C(c4cccnc4)=CC[C@@H]23)[C@@]2(C)CC[C@H](O)C[C@H]12 | 8120 nM |  | 100% |  |  |

Further lines, with some results ahead:

| IC50 [1] | IC50 [5] | SMILES | inhibition at 10 µM [2] | IC50 [3] | DC50 [4] |
| --- | --- | --- | --- | --- | --- |
| 1390 nM |  | C[C@]12CC[C@H](NC(=O)c3cccnc3)CC1=CC[C@@H]1[C@@H]2CC[C@]2(C)C(n3ccnn3)=CC[C@@H]12 | 76.2% |  |  |
| 7200 nM |  | Cn1cncc1S(=O)(=O)N[C@H]1CC[C@@]2(C)C(=CC[C@@H]3[C@@H]2CC[C@]2(C)C(n4cnc5ccccc54)=CC[C@@H]32)C1 | 100% |  |  |
| 978 nM |  | C[C@]12CC[C@H](NC(=O)c3cscn3)CC1=CC[C@@H]1[C@@H]2CC[C@]2(C)C(n3cnc4ccccc43)=CC[C@@H]12 | 63.2% |  |  |
| 1670 nM |  | C[C@]12CC[C@H](NC(=O)c3cccnc3)CC1=CC[C@@H]1[C@@H]2CC[C@]2(C)C(n3cncn3)=CC[C@@H]12 | 105% |  |  |
| 2250 nM |  | C[C@]12CC[C@H](NC(=O)c3cccnn3)CC1=CC[C@@H]1[C@@H]2CC[C@]2(C)C(n3cnc4ccccc43)=CC[C@@H]12 |  |  |  |
| 2430 nM |  | Cc1cncc(C2=CC[C@H]3[C@@H]4CC=C5C[C@@H](NC(=O)c6cccnc6)CC[C@]5(C)[C@H]4CC[C@]23C)c1 | 90.3% |  |  |
| 3550 nM | 16 nM | C[C@]12CC[C@H](O)CC1=CC[C@@H]1[C@@H]2CC[C@]2(C)C(n3cnc4ccccc43)=CC[C@@H]12 [GALETERONE] | 110% |  |  |
| > 10000 nM |  | C[C@]12CC[C@H](NC(=O)c3cccnc3)CC1=CC[C@@H]1[C@@H]2CC[C@]2(C)C(c3cncnc3)=CC[C@@H]12 |  |  |  |
| 1600 nM |  | C[C@]12CC[C@H](NC(=O)c3cccnc3)CC1=CC[C@@H]1[C@@H]2CC[C@]2(C)C(n3cnc4ccccc43)=CC[C@@H]12 | 109% |  |  |
| 1420 nM |  | C[C@]12CC[C@H](NC(=O)c3ccncn3)CC1=CC[C@@H]1[C@@H]2CC[C@]2(C)C(n3cnc4ccccc43)=CC[C@@H]12 | 101% |  |  |
| 2230 nM |  | C[C@]12CC[C@H](NC(=O)c3cocn3)CC1=CC[C@@H]1[C@@H]2CC[C@]2(C)C(n3cnc4ccccc43)=CC[C@@H]12 | 95.2% |  |  |
